Source: patent publication US4786643A, “Treatment of migraine, cluster headaches and trigeminal neuralgia” (Beecham Group p.l.c., priority 1985, dated 1988)

Legend:
Format in all cases: in vivo
[1] = tested on: von Bezold-Jarisch reflex evoked by 5HT; test: Antagonism of the von Bezold-Jarisch reflex evoked by 5HT in the anaesthetised rat; settings: iv, anaesthetised male rats, i.v., 5-HT 6-20 μg/kg i.v., heart rate, read-out: ED50 (reduction of the 5HT-evoked response to 50% of the control response)
Method: 1. Antagonism of the von Bezold-Jarisch reflex
The compounds were evaluated for antagonism of the von Bezold-Jarisch reflex evoked by 5HT in the anaesthetised rat according to the following method:
Male rats 250-350 g, were anaesthetised with urethane (1.25 g/kg intraperitoneally) and blood pressure and heart rate recorded as described by Fozard J. R. et al., J. Cardiovasc. Pharmacol. 2, 229-245 (1980). A submaximal dose of 5-HT (6-20 μg/kg) was given repeatedly by the intravenous route and changes in heart rate quantified. Test Compounds were given intravenously and the concentration required to reduce the 5HT-evoked response to 50% of the control response (ED50) was then determined.

[2] = tested on: emetic response (cisplatin); test: Inhibition of Chemotherapy Induced Nausea and Vomiting (cisplatin, ferret); settings: administered twice, cisplatin 10 mg/kg i.v., 5 hours
Text: 2. Inhibition of Chemotherapy Induced Nausea and Vomiting
Adult male ferrets (initial body weight 1.3-1.8 kg) were individually housed, fed once daily (200 g Chum Puppy Food plus 50 g Lab Diet A) and were supplied with water ad libitum. Additionally, each animal was given 1/2 pint of milk daily during an acclimatization period.
To facilitate intravenous administration of drugs, a chronic indwelling catheter was surgically implanted into the jugular vein using a modification of the technique described by Florczyk and Schurig, 1981 (Pharmacol. Biochem. Behav., 14, 255-257). Prior to surgery each animal was sedated with ketamine hydrochloride (40 mg/animal intramuscularly) and anaesthetised with a halothane-N2 O--O2 mixture. A four day recovery period was allowed before commencement of an experiment.
For each group of animals, a preliminary study was carried out to establish an intravenous dose level of cisplatin which would give a consistent and reproducible emetic response. The appropriate dose of test compound was administered intravenously twice to each animal; 30 minutes before and 45 minutes after dosing with cisplatin. Running controls received vehicle and cisplatin only.
A single emetic response commenced when an animal assumed a characterrc posture with retching and was concluded when either vomitus was expelled or was present in the mouth as evidenced by a chewing movement.
All solutions were prepared in water for injection B. P. Cisplatin was prepared from vials of Neoplatin for injection (Mead Johnson; dose volume of […]).

[3] = tested on: Radiation Induced Nausea and Vomiting; test: Inhibition of Radiation Induced Nausea and Vomiting (X-ray, ferret); settings: for No. of animals completely protected/No. of animals used: 2 to 4 minutes before irradiation; for Latency period, Group Mean (±s.e.m.): taken as 120 minutes in animals completely protected, vehicle 19.4 (±1.1); for No. of emetic episodes, Group Mean (±s.e.m.): vehicle 28.8 (±1.3)
Text: 3. Inhibition of Radiation Induced Nausea and Vomiting.
Ferrets with surgically implanted indwelling venous cannulae were restrained in a purposely constructed perspex box, and exposed to ionising radiation from an X-ray source. The X-ray source (Machlett, Model OEG-50, Tungsten Anode) was approximately 25 cm from the upper surface of the animal, and was operated at 50 Kv and 20 mA through a 1 mm beryllium window and 0.18 mm aluminium filtration. The whole body of each animal was irradiated for 10.4 minutes at a dose rate of 300 rad/minute. At the completion of irradiation animals were put back in their pens and observed for at least 120 minutes. The time from the start of irradiation to the first emetio episode (latency period), and the number of emetic episodes were recorded. […] The test compound was injected intravenously 2 to 4 minutes before the start of irradiation.

[4] = tested on: arrhythmias after coronary ligation; test: Antiarrhythmic Activity, dog coronary ligation model; settings: for reduction of ectopic beats on day 2 (max. effects) / antagonism of arrhythmias on day 2 (max. effects): 48 h after coronary ligation; for reduction of ectopic beats on day 1 (max. effects) / antagonism of arrhythmias on day 2 (max. effects): 2. dog
Method: 4. Antiarrhythmic Activity
The compound of Example 9 was tested for antiarrhythmic activity in the dog coronary ligation model (method: Harris, A., Circulation Res. 1, 1318-1328, 1950).

COc1cc(N)c(Cl)cc1C(=O)NC1CCN2CCCC1C2 (racemic) [Example 9, (±)4-amino-5-chloro-2-methoxy-N-(4[1-azabicyclo-3,3,1]-nonyl])-benzamide]
ED50 [1]: 3.3 µg/kg | No. of animals completely protected/No. of animals used ([2]; 0.65 mg/kg i.v.): 1/6 | No. of animals completely protected/No. of animals used ([2]; 1.25 mg/kg i.v.): 4/6 | No. of animals completely protected/No. of animals used ([2]; 2.5 mg/kg i.v.): 3/6 | No. of animals completely protected/No. of animals used ([3]; 0.25 mg/kg i.v.): 1/4 | Latency period, Group Mean (±s.e.m.) ([3]; 0.25 mg/kg i.v., P < 0.05): 64.0 (±18.7) | No. of emetic episodes, Group Mean (±s.e.m.) ([3]; 0.25 mg/kg i.v., P < 0.05): 7.8 (±3.3) | No. of animals completely protected/No. of animals used ([3]; 1.25 mg/kg i.v.): 2/5 | Latency period, Group Mean (±s.e.m.) ([3]; 1.25 mg/kg i.v., P < 0.01): 79.2 (±16.7) | No. of emetic episodes, Group Mean (±s.e.m.) ([3]; 1.25 mg/kg i.v., P < 0.01): 1.2 (±0.6) | effect on day 1-arrhythmias (max. effects) ([4]; 1. dog, 24 h after coronary ligation, 0.5-3.0 mg/kg): no effect | reduction of ectopic beats on day 2 (max. effects) ([4]; 1. dog, 2.0 mg/kg): 41% | reduction of ectopic beats on day 2 (max. effects) ([4]; 1. dog, 3.0 mg/kg): 76% | reduction of ectopic beats on day 1 (max. effects) ([4]; 24 h after coronary ligation, 20 mg/kg (so in the source)): 69% | reduction of ectopic beats on day 1 (max. effects) ([4]; 24 h after coronary ligation, 1,0 mg/kg): 63% | reduction of ectopic beats on day 1 (max. effects) ([4]; 24 h after coronary ligation, 3,0 mg/kg): 82% | antagonism of arrhythmias on day 2 (max. effects) ([4]; 0.5 mg/kg): 89% | antagonism of arrhythmias on day 2 (max. effects) ([4]; 1.0 mg/kg): 100%
